What all share (type): cell-based, human
One assay has as its system c-Myc. Nature of the assay: Western blot of c-Myc expression in liver cancer cells. Conditions: C3A cells, 1 μM DEDA vs DMSO. The procedure: Cells were grown in six-well plates and lysed in 0.5 mL/well lysis buffer (50 mM HEPES, 100 mM NaCl, 2 mM EDTA, 1% glycerol, 50 mM NaF, 1 mM Na3VO4, 1% Triton X-100, with protease inhibitors). Cell lysates were separated by a 10% SDS-PAGE gel and transferred to an Immobilon PVDF membrane. The protein levels of c-Myc and GAPDH (loading control) were analyzed using antibodies that recognize c-Myc (Epitomics, #1472-1) and GAPDH (GeneTex, #627408).
A general note: In western blotting, separated proteins are transferred to a membrane and probed.

The next assay concerns C3A. Nature of the assay: Cell proliferation assay of single cell line. The settings on record: 1 μM, 30 h. As for the experimental part: (§1) The liver cancer cell lines, Huh7, C3A, PLC/PRF/5, SNU449, SNU475 and SK-Hep1, were purchased from the American Type Culture Collection (ATCC). The cells were cultured in DMEM (ATCC®30-2002) containing 10% (v/v) Fetal Bovine Serum (FBS) (Sigma F0926) and grown in an incubator at 37° C. with 5% CO2. The halogenated diarylacetylene, 4-((2,6-difluorophenyl) ethynyl)-N,N-dimethylaniline (DEDA), was synthesized and characterized as previously described.^18,19
(§2) For proliferation assays of single cell line, cells were seeded in 12-well plates (2×10^5 cells per well) and incubated overnight. The following day, DEDA (1 μM solution in DMSO) was added to each well with DMSO alone as a control. Each experiment was performed in quadruplicate. After 30 h, cells were analyzed under a reverse microscope. Cell viability and number were analyzed using the Vi-Cell XR Cell Viability Analyzer (Beckman Coulter).

For the next assay, the system named is Huh7. As to the kind of experiment: Cell proliferation assay of single cell line. Conditions: Huh7, 1 μM, 30 h. As for the experimental part: as §1, §2
The subject of another assay is PLC/PRF/5. As to the kind of experiment: Cell proliferation assay of single cell line. Conditions: PLC/PRF/5, 1 μM, 30 h. The procedure:
as §1, §2

The subject of another assay is SK-Hep1. As to the kind of experiment: Cell proliferation assay of single cell line. Conditions: SK-Hep1, 1 μM, 30 h. As for the experimental part:
as §1, §2

The subject of a further assay is SNU449. As to the kind of experiment: Cell proliferation assay of single cell line. Conditions: SNU449, 1 μM, 30 h. The procedure:
as §1, §2

Another assay deals with SNU475. As to the kind of experiment: Cell proliferation assay of single cell line. Conditions: SNU475, 1 μM, 30 h. The procedure:
as §1, §2

For the compound `CN(C)c1ccc(C#Cc2c(F)cccc2F)cc1` [DEDA, 4-((2,6-difluorophenyl)ethynyl)-N,N-dimethylaniline], the c-Myc expression entry with c-Myc is “inhibited c-Myc expression”. Further, the “sensitivity in cell proliferation assay” value is given as “DEDA-sensitive” in the assay with C3A; “DEDA-sensitive” with Huh7; “resistant” in the assay with PLC/PRF/5; “resistant” in the assay on SK-Hep1; “resistant” in the assay on SNU449; “resistant” in the assay with SNU475.

The record behind these values is patent US20240410877A1, “SYSTEMS AND METHODS FOR MIXED MULTIPLE CELL LINE SCREENING USING ENDOGENOUS SINGLE NUCLEOTIDE POLYMORPHISM (SNP)-BASED CELL LINE IDENTIFICATION” (University of Kentucky Research Foundation, priority 2023, published 2024).
